These are literature values, as cited in patent US20190117655A1, “Treatment of Biliary Duct Cancer” (ASLAN Pharmaceuticals PTE LTD, priority 2015, published 2019).

This data set deals with advanced or metastatic biliary tract cancer. The settings on record: capecitabine monotherapy, similar populations; cited from earlier work.

For `CCCCCOC(=O)Nc1nc(=O)n([C@@H]2O[C@H](C)[C@@H](O)[C@H]2O)cc1F` [capecitabine], the “Historical response rate, ORR” value is 6-8%.
